In US11472803B2, “7-substituted 1-aryl-naphthyridine-3-carboxylic acid amides and use thereof” (Bayer Aktiengesellschaft, priority 2016, dated 2022):

Molecular target: T1, human M2 receptor (Homo sapiens, UniProt P08172)
T1 construct: expressed in transfected cells; host or cells: CHO-DUKX (CHO-DUKX-M2-GIRK)
T1 sequence (P08172 1-466): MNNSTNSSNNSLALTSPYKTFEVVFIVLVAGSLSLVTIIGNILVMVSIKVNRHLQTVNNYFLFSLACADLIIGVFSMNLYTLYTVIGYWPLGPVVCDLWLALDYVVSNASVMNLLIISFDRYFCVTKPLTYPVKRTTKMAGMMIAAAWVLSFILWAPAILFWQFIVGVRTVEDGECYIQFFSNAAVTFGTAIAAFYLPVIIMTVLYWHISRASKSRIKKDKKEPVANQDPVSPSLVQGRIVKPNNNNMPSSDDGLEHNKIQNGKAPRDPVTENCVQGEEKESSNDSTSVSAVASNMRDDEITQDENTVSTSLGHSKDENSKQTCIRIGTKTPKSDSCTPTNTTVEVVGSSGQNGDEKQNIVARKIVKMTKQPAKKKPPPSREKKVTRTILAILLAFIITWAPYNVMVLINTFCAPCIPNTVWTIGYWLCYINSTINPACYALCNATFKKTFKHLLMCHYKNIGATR
Assay: Functional M2-GIRK1/4 activation test: allosteric potency (EC50) and efficiency at EC20 acetylcholine
Assay type: cell-based
Conditions: CHO-DUKX-M2-GIRK cells; for EC50: voltage-sensitive dye, acetylcholine at EC20, in some cases mean of two or more determinations; for Emax / Efficiency: boosting of the acetylcholine effect at EC20 acetylcholine concentration
How it was run: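 Positive allosteric modulation measured as boosting of an EC20 acetylcholine response: hyperpolarization via GIRK1/4 in CHO-DUKX-M2-GIRK cells, monitored by membrane-potential dye fluorescence over 60 s after agonist, compound preadded. Hill-function fit gives EC50 and efficiency.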

| SMILES | EC50 | Emax | Efficiency |
| --- | --- | --- | --- |
| C[C@@H](NC(=O)c1cn(-c2c(F)cc(F)cc2Cl)c2nc(N3C[C@@H](O)[C@H](O)C3)c(F)cc2c1=O)C1CC1 [Example 44, 1-(2-chloro-4,6-difluorophenyl)-N-[(1R)-1-cyclopropylethyl]-7-[(3R,4R)-3,4-dihydroxypyrrolidin-1-yl]-6-fluoro-4-oxo-1,4-dihydro-1,8-naphthyridine-3-carboxamide] | 12 nM | 100% | – |
| O=C(NC(C1CC1)C(F)(F)C(F)(F)F)c1cn(-c2c(F)cc(F)cc2F)c2nc(N3C[C@@H](O)[C@H](O)C3)c(F)cc2c1=O (single isomer, unassigned) [Example 202] | 1 nM | – | 100% |
| CC(NC(=O)c1cn(-c2c(F)cc(F)cc2F)c2nc(N3CCC(O)C(O)C3)c(F)cc2c1=O)C(F)(F)C(F)(F)F (single isomer, unassigned) [Example 183, 7-(3,4-Dihydroxypiperidin-1-yl)-6-fluoro-4-oxo-N-(3,3,4,4,4-pentafluorobutan-2-yl)-1-(2,4,6-trifluorophenyl)-1,4-dihydro-1,8-naphthyridine-3-carboxamide] | 42.3 nM | – | 96% |
| O=C(NC(C1CC1)C1CC1)c1cn(-c2c(F)cc(F)cc2F)c2nc(N3C[C@@H](O)[C@H](O)C3)c(F)cc2c1=O [Example 21, N-(dicyclopropylmethyl)-7-[(3R,4R)-3,4-dihydroxypyrrolidin-1-yl]-6-fluoro-4-oxo-1-(2,4,6-trifluorophenyl)-1,4-dihydro-1,8-naphthyridine-3-carboxamide] | 3 nM | 100% | – |
| CC(C)(C)C(NC(=O)c1cn(-c2c(F)cc(F)cc2F)c2nc(N3CC4(COC4)C3)c(F)cc2c1=O)C(F)(F)C(F)(F)F (single isomer, unassigned) [Example 215, 6-Fluoro-7-(2-oxa-6-azaspiro[3.3]hept-6-yl)-4-oxo-N-[1,1,1,2,2-pentafluoro-4,4-dimethylpentan-3-yl]-1-(2,4,6-trifluorophenyl)-1,4-dihydro-1,8-naphthyridine-3-carboxamide] | 8.6 nM | – | 100% |
| O=C(N[C@@H](C1CC1)C(F)(F)F)c1cn(-c2c(F)cc(F)cc2F)c2nc(N3CCOCC3)c(F)cc2c1=O [Example 147, N-[(1S)-Cyclopropyl-2,2,2-trifluoroethyl]-6-fluoro-7-(morpholin-4-yl)-4-oxo-1-(2,4,6-trifluorophenyl)-1,4-dihydro-1,8-naphthyridine-3-carboxamide] | 16 nM | 94% | – |
| CC(C)(NC(=O)c1cn(-c2c(F)cc(F)cc2F)c2nc(N3CC4(COC4)C3)c(F)cc2c1=O)C(F)(F)C(F)(F)F (racemic) [Example 163, 6-Fluoro-7-(2-oxa-6-azaspiro[3.3]hept-6-yl)-4-oxo-N-(3,3,4,4,4-pentafluoro-2-methylbutan-2-yl)-1-(2,4,6-trifluorophenyl)-1,4-dihydro-1,8-naphthyridine-3-carboxamide] | 25 nM | 93% | – |
| CC(NC(=O)c1cn(-c2c(F)cc(F)cc2F)c2nc(N3CCCC(O)(CO)C3)c(F)cc2c1=O)C(F)(F)C(F)(F)F (stereo not drawn) [Example 192, 6-Fluoro-7-[3-hydroxy-3-(hydroxymethyl)piperidin-1-yl]-4-oxo-N-[3,3,4,4,4-pentafluorobutan-2-yl]-1-(2,4,6-trifluorophenyl)-1,4-dihydro-1,8-naphthyridine-3-carboxamide] | 128 nM | 100% | – |
| O=C(NC(C(F)(F)F)C(F)(F)F)c1cn(-c2c(F)cc(F)cc2F)c2nc(N3CC4(COC4)C3)c(F)cc2c1=O [Example 196, 6-Fluoro-N-(1,1,1,3,3,3-hexafluoropropan-2-yl)-7-(2-oxa-6-azaspiro[3.3]hept-6-yl)-4-oxo-1-(2,4,6-trifluorophenyl)-1,4-dihydro-1,8-naphthyridine-3-carboxamide] | 63 nM | 100% | – |
| CC(C)(NC(=O)c1cn(-c2c(F)cc(F)cc2F)c2nc(N3CC[C@H](O)[C@@H]3CO)c(F)cc2c1=O)C(F)(F)C(F)(F)F [Example 193, 6-Fluoro-7-[(2S,3S)-3-hydroxy-2-(hydroxymethyl)pyrrolidin-1-yl]-4-oxo-N-(3,3,4,4,4-pentafluoro-2-methylbutan-2-yl)-1-(2,4,6-trifluorophenyl)-1,4-dihydro-1,8-naphthyridine-3-carboxamide] | 32.5 nM | 100% | – |
| O=C(N[C@@H](C1CC1)C(F)(F)F)c1cn(-c2c(F)cc(F)cc2F)c2nc(N3CCNCC3)c(F)cc2c1=O [Example 81, N-[(1S)-1-Cyclopropyl-2,2,2-trifluoroethyl]-6-fluoro-4-oxo-7-(piperazin-1-yl)-1-(2,4,6-trifluorophenyl)-1,4-dihydro-1,8-naphthyridine-3-carboxamide] | 150 nM | 87% | – |
| CCC(NC(=O)c1cn(-c2c(F)cc(F)cc2F)c2nc(N3C[C@@H](O)[C@@H](O)C3)c(F)cc2c1=O)C(C)C (stereo partly drawn) [Example 105, 7-[(3R,4S)-3,4-Dihydroxypyrrolidin-1-yl]-6-fluoro-V-[2-methylpentan-3-yl]-6-fluoro-4-oxo-1-(2,4,6-trifluorophenyl)-1,4-dihydro-1,8-naphthyridine-3-carboxamide] | 7.5 nM | – | 97% |
| CC(C)(C)OC(=O)N1CCC(NC(=O)c2cn(-c3c(F)cc(F)cc3F)c3nc(N4C[C@@H](O)[C@H](O)C4)c(F)cc3c2=O)C(F)(F)C1 (stereo partly drawn) [Example 85, tert-Butyl 4-[({7-[(3R,4R)-3,4-dihydroxypyrrolidin-1-yl]-6-fluoro-4-oxo-1-(2,4,6-trifluoro-phenyl)-1,4-dihydro-1,8-naphthyridin-3-yl}carbonyl)amino]-3,3-difluoropiperidine-1-carboxylate] | 33 nM | 100% | – |
| O=C(N[C@@H](C1CC1)C(F)(F)F)c1cn(-c2c(F)cc(F)cc2F)c2nc(N3CC4(COC4)C3)c(F)cc2c1=O [Example 83, N-[(1S)-1-Cyclopropyl-2,2,2-trifluoroethyl]-6-fluoro-7-(2-oxa-6-azaspiro[3.3]hept-6-yl)-4-oxo-1-(2,4,6-trifluorophenyl)-1,4-dihydro-1,8-naphthyridine-3-carboxamide] | 44 nM | 94% | – |
| CC(C)(NC(=O)c1cn(-c2c(F)cc(F)cc2Cl)c2nc(N3C[C@@H](O)[C@H](O)C3)c(F)cc2c1=O)C(F)F (single isomer, unassigned) [Example 142] | 39 nM | 99% | – |
| CC[C@H](NC(=O)c1cn(-c2c(F)cc(F)cc2F)c2nc(N3C[C@@H](O)[C@H](O)C3)c(Cl)cc2c1=O)C(F)(F)F [Example 38, 6-chloro-7-[(3R,4R)-3,4-dihydroxypyrrolidin-1-yl]-4-oxo-N-[(2S)-1,1,1-trifluorobutan-2-yl]-1-(2,4,6-trifluorophenyl)-1,4-dihydro-1,8-naphthyridine-3-carboxamide] | 10.1 nM | 100% | – |
| CC(C)(C)C(NC(=O)c1cn(-c2c(F)cc(F)cc2F)c2nc(N3CC(CO)(CO)C3)c(F)cc2c1=O)C(F)(F)C(F)(F)F (single isomer, unassigned) [Example 216, 7-[3,3-bis(hydroxymethyl)azetidin-1-yl]-6-fluoro-4-oxo-N-[1,1,1,2,2-pentafluoro-4,4-dimethylpentan-3-yl]-1-(2,4,6-trifluorophenyl)-1,4-dihydro-1,8-naphthyridine-3-carboxamide] | 1.5 nM | – | 99% |
| O=C(N[C@@H](C1CC1)C(F)(F)F)c1cn(-c2c(F)cc(F)cc2Cl)c2nc(N3C[C@@H](O)[C@H](O)C3)c(F)cc2c1=O [Example 42, 1-(2-chloro-4,6-difluorophenyl)-N-[(1S)-1-cyclopropyl-2,2,2-trifluoroethyl]-7-[(3R,4R)-3,4-dihydroxypyrrolidin-1-yl]-6-fluoro-4-oxo-1,4-dihydro-1,8-naphthyridine-3-carboxamide] | 4 nM | 100% | – |
| CC(NC(=O)c1cn(-c2ncc(F)cc2F)c2nc(N3CC[C@H](O)C3)c(F)cc2c1=O)C(F)(F)C(F)(F)F (mixture of isomers) [Example 127, 1-(3,5-Difluoropyridin-2-yl)-6-fluoro-7-[(3S)-3-hydroxypyrrolidin-1-yl]-4-oxo-N-[3,3,4,4,4-pentafluorobutan-2-yl]-1,4-dihydro-1,8-naphthyridine-3-carboxamide] | 13 nM | 92% | – |
| O=C(NC(C(F)(F)F)C(F)(F)F)c1cn(-c2ncc(F)cc2F)c2nc(N3CCC(O)(CO)CC3)c(F)cc2c1=O [Example 198, 1-(3,5-Difluoropyridin-2-yl)-6-fluoro-N-(1,1,1,3,3,3-hexafluoropropan-2-yl)-7-[4-hydroxy-4-(hydroxymethyl)piperidin-1-yl]-4-oxo-1,4-dihydro-1,8-naphthyridine-3-carboxamide] | 33 nM | 100% | – |
| CC(C)C(NC(=O)c1cn(-c2c(F)cc(F)cc2Cl)c2nc(N3C[C@@H](O)[C@H](O)C3)c(F)cc2c1=O)C(F)(F)F (stereo partly drawn) [Example 136, 1-(2-Chloro-4,6-difluorophenyl)-7-[(3R,4R)-3,4-dihydroxypyrrolidin-1-yl]-6-fluoro-4-oxo-N-[1,1,1-trifluoro-3-methylbutan-2-yl]-1,4-dihydro-1,8-naphthyridine-3-carboxamide] | 2.8 nM | 84% | – |
